Active and inactive are the calls of the source.
What was measured:
[1] = molecular target: C-X-C chemokine receptor type 4 (Homo sapiens, UniProt P61073); assay: SAR analysis of small molecule antagonists of the CXCR6 receptor using a CXCR4 receptor luminescent beta-arrestin counterscreen.; assay type: functional
[2] = molecular target: C-C chemokine receptor type 6 (Homo sapiens, UniProt P51684); assay: SAR analysis of small molecule antagonists of the CXCR6 receptor using a CCR6 receptor luminescent beta-arrestin counterscreen.; assay type: functional
Beta Lactamase = Beta Lactamase (Pseudomonas aeruginosa, UniProt Q932Y6); assay: BLA reporter interference, concentration series – BLA reporter cells, FRET fluorescence, artefact control for TLR9-MyD88 binding inhibitor project, dose response (AID 588341); assay type: cell-based;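 note: cell based assay in CHO-K1 cells stably expressing beta-lactamase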
NS3 = NS3 (Hepatitis C virus, UniProt A3EZJ3); assay: NS3h DNA-binding inhibition IC50 – biochemical, fluorescence polarization, ChemBridge library, dose response (AID 743264)
CHO = CHO cell viability loss, potency – luminescence, cytotoxicity control for TLR9-MyD88 binding inhibitor project, dose response (AID 588339); assay type: functional, cell-based, hamster; conditions: Cricetulus griseus;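 note: CHO cells stably coexpressing TLR9 and MyD88 fusions from primary screen; compound exposure lasted 48 hours before viability readout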
[3] = molecular target: T1, Rac GTPase-activating protein 1 (Homo sapiens, UniProt Q9H0H5); assay: blockers of MgcRacGAP-driven Rac1 GTP hydrolysis – biochemical, ADP Hunter fluorescence, primary and confirmatory, confirmation (AID 624330); assay type: functional
T1 sequence (Q9H0H5 whole entry): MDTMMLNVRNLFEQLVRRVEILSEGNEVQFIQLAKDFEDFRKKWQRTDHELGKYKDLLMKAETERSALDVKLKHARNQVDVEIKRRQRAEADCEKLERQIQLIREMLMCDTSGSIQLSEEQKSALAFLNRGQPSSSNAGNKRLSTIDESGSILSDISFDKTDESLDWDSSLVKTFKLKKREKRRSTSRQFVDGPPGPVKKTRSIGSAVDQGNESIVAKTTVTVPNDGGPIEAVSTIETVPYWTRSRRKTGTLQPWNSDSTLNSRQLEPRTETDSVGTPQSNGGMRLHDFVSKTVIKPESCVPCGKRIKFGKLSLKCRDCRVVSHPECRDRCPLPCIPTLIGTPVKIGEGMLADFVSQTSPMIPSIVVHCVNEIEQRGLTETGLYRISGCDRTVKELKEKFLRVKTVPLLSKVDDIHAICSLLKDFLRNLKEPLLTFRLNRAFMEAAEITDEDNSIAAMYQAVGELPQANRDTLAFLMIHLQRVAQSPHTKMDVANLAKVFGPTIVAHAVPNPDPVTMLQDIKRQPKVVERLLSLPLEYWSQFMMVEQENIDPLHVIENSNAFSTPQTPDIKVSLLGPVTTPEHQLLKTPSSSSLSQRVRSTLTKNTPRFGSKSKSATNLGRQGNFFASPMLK

[4] = molecular target: NAD-dependent protein deacylase sirtuin-5, mitochondrial (Homo sapiens, UniProt Q9NXA8); assay: blockers of sirtuin-5 peptide desuccinylation – biochemical, fluorescence imaging, cherry-pick, set 6, dose response (AID 720597)
[5] = viability loss in HEK293T cells – cell-based, CellTiter-Glo luminescence, dry powder, set 6, cytotoxicity control, dose response (AID 651949); assay type: functional; conditions: HEK293
Coagulation factor XII = molecular target: T2, Coagulation factor XII (Homo sapiens, UniProt P00748); assay type: functional;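 note: activated factor XIIa alpha cleaving a fluorogenic AMC peptide substrate; inhibitor potency from loss of enzyme activity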
T2 sequence (P00748 whole entry): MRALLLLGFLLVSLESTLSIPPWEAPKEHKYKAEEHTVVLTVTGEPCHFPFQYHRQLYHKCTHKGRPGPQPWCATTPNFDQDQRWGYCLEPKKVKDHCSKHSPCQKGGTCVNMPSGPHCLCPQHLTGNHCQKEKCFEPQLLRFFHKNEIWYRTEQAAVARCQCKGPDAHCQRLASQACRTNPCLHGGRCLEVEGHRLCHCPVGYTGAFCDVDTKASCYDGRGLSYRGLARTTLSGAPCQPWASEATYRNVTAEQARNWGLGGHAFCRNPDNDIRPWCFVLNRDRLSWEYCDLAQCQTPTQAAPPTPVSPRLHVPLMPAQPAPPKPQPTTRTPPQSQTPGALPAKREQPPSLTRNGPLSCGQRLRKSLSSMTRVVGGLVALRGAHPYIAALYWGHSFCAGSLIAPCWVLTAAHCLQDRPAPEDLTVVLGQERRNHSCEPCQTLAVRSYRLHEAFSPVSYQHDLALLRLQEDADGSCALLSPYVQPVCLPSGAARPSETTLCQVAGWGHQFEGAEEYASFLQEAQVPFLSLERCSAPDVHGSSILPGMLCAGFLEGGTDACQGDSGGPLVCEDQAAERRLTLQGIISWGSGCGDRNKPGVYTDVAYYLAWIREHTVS

[6] = molecular target: 1-phosphatidylinositol 4,5-bisphosphate phosphodiesterase gamma-1 (Homo sapiens, UniProt P19174); assay: Counterscreen for inhibitors of phospholipase C isozymes (PLC-B3): Fluorescence-based biochemical high throughput dose response assay to identify inhibitors of phospholipase C isozymes (PLC-gamma1).
[7] = molecular target: 1-phosphatidylinositol 4,5-bisphosphate phosphodiesterase beta-3 (Homo sapiens, UniProt Q01970); assay: Fluorescence-based biochemical high throughput dose response assay to identify inhibitors of phospholipase C isozymes (PLC-B3).
[8] = YAP1 overexpression rescue of CTGF inhibition – DLD1 cells, RT-qPCR, cherry-pick, mechanism study for YAP1 pathway inhibitor project, dose response (AID 1053127); assay type: functional, cell-based; conditions: DLD-1
[9] = CTGF mRNA reduction in DLD1 cells – cell-based, DLD1 colon cancer, RT-qPCR, cherry-pick, dose response (AID 1053122); assay type: functional; conditions: Cancer cell lines
[10] = suppression of HIF-dependent reporter luminescence – cell-based, dry powder samples, 2158-07, ARNT-TACC3 inhibitor project, dose response (AID 720561); assay type: functional
[11] = Late stage assay provider results from the probe development effort to identify inhibitors of the Plasmodium falciparum M18 Aspartyl Aminopeptidase (M18AAP): radiolabel-based cell-based dose response assay to identify compounds that inhibit P. falciparum growth in RBCs, Set 2..; assay type: functional

C-C chemokine receptor type 6, sequence (P51684 whole entry): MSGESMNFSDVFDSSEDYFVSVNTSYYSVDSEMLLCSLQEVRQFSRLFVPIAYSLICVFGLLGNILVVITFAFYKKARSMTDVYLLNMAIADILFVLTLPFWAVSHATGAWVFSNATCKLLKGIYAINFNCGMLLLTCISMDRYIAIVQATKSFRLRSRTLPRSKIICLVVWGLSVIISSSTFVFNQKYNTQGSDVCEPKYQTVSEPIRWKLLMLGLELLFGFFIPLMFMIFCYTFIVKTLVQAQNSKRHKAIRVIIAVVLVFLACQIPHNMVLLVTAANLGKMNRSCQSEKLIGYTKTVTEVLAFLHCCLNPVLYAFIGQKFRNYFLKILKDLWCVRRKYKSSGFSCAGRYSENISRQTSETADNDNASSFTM
NS3, sequence (A3EZJ3 whole entry, the tested form may be a part): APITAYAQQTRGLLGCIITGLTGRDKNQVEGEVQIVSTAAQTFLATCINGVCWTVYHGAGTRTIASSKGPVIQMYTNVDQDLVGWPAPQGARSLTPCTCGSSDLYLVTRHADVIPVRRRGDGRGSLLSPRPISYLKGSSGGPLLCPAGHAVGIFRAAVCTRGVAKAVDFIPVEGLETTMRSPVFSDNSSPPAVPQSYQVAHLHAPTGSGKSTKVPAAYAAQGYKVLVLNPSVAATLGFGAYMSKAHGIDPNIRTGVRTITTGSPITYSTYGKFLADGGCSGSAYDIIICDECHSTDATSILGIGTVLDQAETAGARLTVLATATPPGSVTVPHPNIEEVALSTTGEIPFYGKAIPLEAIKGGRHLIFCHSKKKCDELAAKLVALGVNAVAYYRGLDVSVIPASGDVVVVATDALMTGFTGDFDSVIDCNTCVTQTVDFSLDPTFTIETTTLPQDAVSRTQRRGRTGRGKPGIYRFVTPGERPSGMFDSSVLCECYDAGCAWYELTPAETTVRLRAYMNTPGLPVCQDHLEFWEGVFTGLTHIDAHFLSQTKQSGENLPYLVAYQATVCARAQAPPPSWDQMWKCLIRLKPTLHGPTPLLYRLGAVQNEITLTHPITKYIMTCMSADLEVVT
NAD-dependent protein deacylase sirtuin-5, mitochondrial, sequence (Q9NXA8 whole entry): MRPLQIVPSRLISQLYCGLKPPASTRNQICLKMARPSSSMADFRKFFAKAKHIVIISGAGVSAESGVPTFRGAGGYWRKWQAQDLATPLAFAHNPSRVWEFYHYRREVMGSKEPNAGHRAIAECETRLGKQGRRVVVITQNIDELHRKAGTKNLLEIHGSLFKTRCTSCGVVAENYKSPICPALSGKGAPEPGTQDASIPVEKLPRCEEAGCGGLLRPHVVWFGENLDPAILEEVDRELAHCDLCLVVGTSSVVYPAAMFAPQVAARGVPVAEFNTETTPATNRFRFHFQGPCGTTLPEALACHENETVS
1-phosphatidylinositol 4,5-bisphosphate phosphodiesterase beta-3, sequence (Q01970 whole entry): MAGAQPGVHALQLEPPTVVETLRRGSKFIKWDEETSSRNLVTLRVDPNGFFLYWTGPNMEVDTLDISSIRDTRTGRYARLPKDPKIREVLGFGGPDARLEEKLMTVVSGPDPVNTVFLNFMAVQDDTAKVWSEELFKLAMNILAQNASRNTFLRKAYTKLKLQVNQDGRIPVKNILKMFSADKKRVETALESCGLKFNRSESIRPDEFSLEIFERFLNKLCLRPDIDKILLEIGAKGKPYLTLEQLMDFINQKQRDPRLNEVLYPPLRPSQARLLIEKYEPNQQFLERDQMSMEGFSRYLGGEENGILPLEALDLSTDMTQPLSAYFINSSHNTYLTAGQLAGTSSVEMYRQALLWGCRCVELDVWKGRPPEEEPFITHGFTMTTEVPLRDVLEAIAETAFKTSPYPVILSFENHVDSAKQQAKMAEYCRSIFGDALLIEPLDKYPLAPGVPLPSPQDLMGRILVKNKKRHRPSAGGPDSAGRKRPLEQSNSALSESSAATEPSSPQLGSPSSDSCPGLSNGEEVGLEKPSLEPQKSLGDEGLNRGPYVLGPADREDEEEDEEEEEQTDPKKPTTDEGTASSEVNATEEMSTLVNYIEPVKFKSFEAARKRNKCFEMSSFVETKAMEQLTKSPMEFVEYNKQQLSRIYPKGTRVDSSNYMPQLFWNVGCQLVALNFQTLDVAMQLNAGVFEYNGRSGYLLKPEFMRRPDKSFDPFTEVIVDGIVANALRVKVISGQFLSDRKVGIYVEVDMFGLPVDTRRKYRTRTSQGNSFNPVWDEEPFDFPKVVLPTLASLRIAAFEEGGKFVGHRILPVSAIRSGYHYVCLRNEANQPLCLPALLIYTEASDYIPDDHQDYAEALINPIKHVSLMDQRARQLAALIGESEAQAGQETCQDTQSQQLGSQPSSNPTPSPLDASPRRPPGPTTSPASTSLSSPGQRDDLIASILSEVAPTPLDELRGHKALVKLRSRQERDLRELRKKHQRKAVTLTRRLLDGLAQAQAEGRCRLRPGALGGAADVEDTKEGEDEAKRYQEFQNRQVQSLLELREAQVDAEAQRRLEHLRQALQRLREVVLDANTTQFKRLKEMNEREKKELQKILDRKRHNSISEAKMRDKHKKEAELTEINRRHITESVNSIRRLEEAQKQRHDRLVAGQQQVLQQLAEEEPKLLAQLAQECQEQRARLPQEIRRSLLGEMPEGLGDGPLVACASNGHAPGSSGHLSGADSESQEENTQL
1-phosphatidylinositol 4,5-bisphosphate phosphodiesterase gamma-1, sequence (P19174 whole entry): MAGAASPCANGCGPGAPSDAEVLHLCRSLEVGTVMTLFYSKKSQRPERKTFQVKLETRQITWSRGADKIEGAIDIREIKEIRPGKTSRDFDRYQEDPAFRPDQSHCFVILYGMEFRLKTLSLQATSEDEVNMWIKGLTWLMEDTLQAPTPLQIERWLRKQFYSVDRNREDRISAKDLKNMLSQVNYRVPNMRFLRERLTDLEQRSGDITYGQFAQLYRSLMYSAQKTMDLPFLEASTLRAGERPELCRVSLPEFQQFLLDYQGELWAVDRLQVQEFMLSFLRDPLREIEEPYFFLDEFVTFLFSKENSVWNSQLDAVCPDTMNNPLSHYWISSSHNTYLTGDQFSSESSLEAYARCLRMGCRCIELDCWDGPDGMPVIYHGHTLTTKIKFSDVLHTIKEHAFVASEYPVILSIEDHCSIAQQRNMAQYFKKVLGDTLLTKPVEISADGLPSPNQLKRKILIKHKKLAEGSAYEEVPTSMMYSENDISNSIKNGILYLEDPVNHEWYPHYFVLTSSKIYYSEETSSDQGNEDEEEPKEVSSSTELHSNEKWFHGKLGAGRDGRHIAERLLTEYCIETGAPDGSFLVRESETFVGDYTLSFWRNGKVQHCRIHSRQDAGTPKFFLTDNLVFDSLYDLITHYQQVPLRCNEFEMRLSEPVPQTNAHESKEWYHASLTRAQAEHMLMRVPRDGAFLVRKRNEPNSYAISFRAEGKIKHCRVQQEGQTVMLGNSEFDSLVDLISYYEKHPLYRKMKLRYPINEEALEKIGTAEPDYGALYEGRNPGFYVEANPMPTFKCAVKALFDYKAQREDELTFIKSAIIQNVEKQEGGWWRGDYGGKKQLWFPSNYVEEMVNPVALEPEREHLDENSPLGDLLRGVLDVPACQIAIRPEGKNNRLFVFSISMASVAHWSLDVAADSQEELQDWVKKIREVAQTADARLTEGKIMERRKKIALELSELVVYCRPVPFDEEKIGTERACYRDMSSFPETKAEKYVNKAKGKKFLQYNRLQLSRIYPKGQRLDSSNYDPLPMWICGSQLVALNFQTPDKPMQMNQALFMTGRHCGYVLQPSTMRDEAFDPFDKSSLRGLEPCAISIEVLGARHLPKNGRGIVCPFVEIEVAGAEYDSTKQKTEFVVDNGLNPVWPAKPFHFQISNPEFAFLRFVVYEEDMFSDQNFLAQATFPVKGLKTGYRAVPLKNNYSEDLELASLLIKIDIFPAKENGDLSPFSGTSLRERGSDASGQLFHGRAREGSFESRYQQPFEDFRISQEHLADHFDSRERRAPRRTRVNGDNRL
Beta Lactamase, sequence (Q932Y6 whole entry): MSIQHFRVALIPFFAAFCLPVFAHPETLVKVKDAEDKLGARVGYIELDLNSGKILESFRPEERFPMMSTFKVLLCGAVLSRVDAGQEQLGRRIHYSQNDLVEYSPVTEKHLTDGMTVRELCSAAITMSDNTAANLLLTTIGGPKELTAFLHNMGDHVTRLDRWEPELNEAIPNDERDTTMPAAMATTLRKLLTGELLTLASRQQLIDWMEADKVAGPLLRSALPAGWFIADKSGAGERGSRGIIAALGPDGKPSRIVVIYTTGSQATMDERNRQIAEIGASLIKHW
C-X-C chemokine receptor type 4, sequence (P61073 whole entry): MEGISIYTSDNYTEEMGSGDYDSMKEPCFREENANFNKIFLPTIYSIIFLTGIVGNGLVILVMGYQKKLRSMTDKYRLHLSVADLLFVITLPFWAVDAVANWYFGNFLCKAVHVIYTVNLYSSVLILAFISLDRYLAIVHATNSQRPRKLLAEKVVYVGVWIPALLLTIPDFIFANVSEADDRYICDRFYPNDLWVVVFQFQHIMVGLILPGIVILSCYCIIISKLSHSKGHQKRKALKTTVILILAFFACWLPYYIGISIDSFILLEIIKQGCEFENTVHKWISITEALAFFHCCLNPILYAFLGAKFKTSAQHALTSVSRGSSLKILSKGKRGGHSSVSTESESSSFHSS

## COc1cc(C(=O)NC2CC3CCCC(C2)N3CC(=O)Nc2ccc(F)cc2)cc(OC)c1OC (stereo not given)
[1]
  IC50: > 79 µM (inactive)
[2]
  IC50: > 79 µM (inactive)

## O=C1C=CC(=O)N1c1ccccc1N1C(=O)C=CC1=O
Beta Lactamase
  IC50: 13.6 µM (inactive)
NS3
  IC50: 34.9 µM (inactive)
CHO
  IC50: 2.55 µM (active)
[3]
  IC50: 62.2 µM (active)

## C[C@H](CO)N1C[C@H](C)[C@H](CN(C)C)Oc2ccc(NC(=O)Nc3ccc(F)cc3)cc2CC1=O
[4]
  AC50: 11.5 µM (active)

## CN(Cc1ccccc1)c1nnc(-c2ccccc2)o1
[5]
  AC50: > 52 µM (inactive)

## CS(=O)(=O)c1nc(-c2ccc(Br)cc2)n[nH]1
Coagulation factor XII
  IC50: > 50 µM (inactive)
[6]
  IC50: 50.8 µM (inactive)
[7]
  IC50: > 122 µM (inactive)

## CO[C@@H](CN(C)S(=O)(=O)c1ccc(C)cc1)[C@H](C)CN([C@H](C)CO)S(=O)(=O)c1cccc(Cl)c1
[8]
  AC50: 4.83 µM (active)
[9]
  AC50: 4.99 µM (active)

## O=C(Nc1nnc(C2=COCCO2)o1)c1ccc(S(=O)(=O)N2CCCCC2)cc1
[10]
  AC50: > 100 µM (inactive)

## Oc1ccc(CCNc2ccnc3ccccc23)cc1O
[11]
  IC50: 3.9 µM (active)
